# Measurements as given in US20170022171A1, “2,5-DISUBSTITUTED CYCLOPENTANECARBOXYLIC ACIDS AND THEIR USE” (Bayer Pharma Aktiengesellschaft, priority 2014, published 2017).
# Biological target: T1, human macrophage elastase (HME/hMMP-12) (Homo sapiens, UniProt P39900)
# T1 construct: 0.5 nM HME; purchased R&D Systems 917-MP
# Test: In vitro HME inhibition test (standard or high-sensitivity)
# Format: biochemical
# Settings: in some cases mean values
# Method: The potency of the compounds according to the invention with respect to HME (MMP-12) is determined in an in vitro inhibition test. The HME-mediated amidolytic cleavage of a suitable peptide substrate leads to an increase in fluorescent light therein. The signal intensity of the fluorescent light is directly proportional to the enzyme activity. The active concentration of a test compound at which half the enzyme is inhibited (50% signal intensity of the fluorescent light) is reported as the IC50 value.
# In a 384 hole microtiter plate, in a total test volume of 41 the test buffer (0.1 M HEPES pH 7.4, 0.15 M NaCl, 0.03 M CaCl2, 0.004 mM ZnCl2, 0.02 M EDTA, 0.005% Brij®), the enzyme (0.5 nM HME; from R&D Systems, 917-MP, autocatalytic activation according to the manufacturer's instructions) and the intramolecularly quenched substrate [5 μM Mca-Pro-Leu-Gly-Leu-Glu-Glu-Ala-Dap(Dnp)-NH2; Bachem, M-2670] are incubated in the absence and presence of the test substance (as a solution in DMSO) at 37° C. for two hours. The fluorescence intensity of the test mixtures is measured (excitation […], emission 393 nm). The IC50 values are ascertained by plotting the fluorescent light intensity against the active ingredient concentration.
# In this case, an enzyme concentration ten times lower is used (final concentration, for example, 0.05 nM) in order to achieve an elevated test sensitivity. The incubation period chosen for the test is correspondingly longer (for example 16 hours).
# T1 sequence (P39900 106-470): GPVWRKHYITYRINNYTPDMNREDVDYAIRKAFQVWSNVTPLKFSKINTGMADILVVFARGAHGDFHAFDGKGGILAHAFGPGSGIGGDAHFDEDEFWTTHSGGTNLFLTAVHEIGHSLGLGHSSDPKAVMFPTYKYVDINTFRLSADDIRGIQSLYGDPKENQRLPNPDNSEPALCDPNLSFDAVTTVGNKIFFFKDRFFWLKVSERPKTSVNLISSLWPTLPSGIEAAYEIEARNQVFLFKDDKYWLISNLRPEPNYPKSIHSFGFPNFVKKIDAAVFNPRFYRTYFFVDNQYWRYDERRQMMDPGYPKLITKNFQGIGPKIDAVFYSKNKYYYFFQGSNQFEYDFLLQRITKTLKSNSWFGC
row,Structure (SMILES),IC50 [nM]
1,"Cc1ccc2nnn(C[C@@H]3CC[C@H](C(=O)c4ccc(OCCCc5ccccc5)cc4)[C@H]3C(=O)O)c(=O)c2c1 (racemic) [Example 115, (+/−)-(1RS,2SR,5RS)-2-[(6-Methyl-4-oxo-1,2,3-benzotriazin-3(4H)-yl)methyl]-5-[4-(3-phenylpropoxy)benzoyl]cyclopentanecarboxylic acid]",0.13
2,"Cc1ccc2nnn(C[C@@H]3CC[C@H](C(=O)c4ccc(OCC5CCCCC5)cc4)[C@H]3C(=O)O)c(=O)c2c1 (racemic) [Example 116, (+/−)-(1RS,2RS,5SR)-2-[4-(Cyclohexylmethoxy)benzoyl]-5-[(6-methyl-4-oxo-1,2,3-benzotriazin-3(4H)-yl)methyl]cyclopentanecarboxylic acid]",0.093
3,"Cc1ccc2nnn(C[C@@H]3CC[C@H](C(=O)c4ccc(OCC5CCCC5)cc4)[C@H]3C(=O)O)c(=O)c2c1 (racemic) [Example 119, (+/−)-(1RS,2RS,5SR)-2-[4-(Cyclopentylmethoxy)benzoyl]-5-[(6-methyl-4-oxo-1,2,3-benzotriazin-3(4H)-yl)methyl]cyclopentanecarboxylic acid]",0.048
4,"CCCCCCOc1ccc(C(=O)[C@H]2CC[C@@H](Cn3nnc4ccc(C)cc4c3=O)[C@@H]2C(=O)O)cc1 (racemic) [Example 120, (+/−)-(1RS,2RS,5SR)-2-[4-(Hexyloxy)benzoyl]-5-[(6-methyl-4-oxo-1,2,3-benzotriazin-3(4H)-yl)methyl]cyclopentanecarboxylic acid]",0.1
5,"CCCCCOc1ccc(C(=O)[C@@H]2CC[C@H](Cn3nnc4ccccc4c3=O)[C@H]2C(=O)O)cc1 (single isomer, unassigned) [Example 8, (+)-(1RS,2SR,5RS)-2-[(4-Oxo-1,2,3-benzotriazin-3(4H)-yl)methyl]-5-[4-(pentyloxy)benzoyl]cyclopentanecarboxylic acid]",0.21
6,"CCCCCOc1ccc(C(=O)[C@@H]2CC[C@H](Cn3nnc4ccccc4c3=O)[C@H]2C(=O)O)cc1 (single isomer, unassigned) [Example 9, (−)-(1RS,2SR,5RS)-2-[(4-Oxo-1,2,3-benzotriazin-3(4H)-yl)methyl]-5-[4-(pentyloxy)benzoyl]cyclopentanecarboxylic acid]",145
7,"O=C(O)[C@@H]1[C@@H](Cn2nnc3ccc(C(F)(F)F)cc3c2=O)CC[C@H]1C(=O)c1ccc(OCc2ccc(F)cc2)cc1 (single isomer, unassigned) [Example 14, (−)-(1RS,2RS,5SR)-2-{4-[(4-Fluorobenzyl)oxy]benzoyl}-5-{[4-oxo-6-(trifluoromethyl)-1,2,3-benzotriazin-3(4H)-yl]methyl}cyclopentanecarboxylic acid]",10
8,"Cc1cccc(COc2ccc(C(=O)[C@@H]3CC[C@H](Cn4nnc5ccc(C(F)(F)F)cc5c4=O)[C@H]3C(=O)O)cc2)c1 (single isomer, unassigned) [Example 17, (−)-(1RS,2RS,5SR)-2-{4-[(3-Methylbenzyl)oxy]benzoyl}-5-{[4-oxo-6-(trifluoromethyl)-1,2,3-benzotriazin-3(4H)-yl]methyl}cyclopentanecarboxylic acid]",48
9,"O=C(O)[C@@H]1[C@@H](Cn2nnc3ccc(C(F)(F)F)cc3c2=O)CC[C@H]1C(=O)c1ccc(OCc2cccc(C(F)(F)F)c2)cc1 (single isomer, unassigned) [Example 20, (−)-(1RS,2SR,5RS)-2-{[4-Oxo-6-(trifluoromethyl)-1,2,3-benzotriazin-3(4H)-yl]methyl}-5-(4-{[3-(trifluoromethyl)benzyl]oxy}benzoyl)cyclopentanecarboxylic acid]",4.6
10,"O=C(O)[C@@H]1[C@@H](Cn2nnc3ccc(C(F)(F)F)cc3c2=O)CC[C@H]1C(=O)c1ccc(OCc2cccc(Cl)c2)cc1 (single isomer, unassigned) [Example 22, (−)-(1RS,2RS,5SR)-2-{4-[(3-Chlorobenzyl)oxy]benzoyl}-5-{[4-oxo-6-(trifluoromethyl)-1,2,3-benzotriazin-3(4H)-yl]methyl}cyclopentanecarboxylic acid]",170
11,"O=C(O)[C@@H]1[C@@H](Cn2nnc3ccc(C(F)(F)F)cc3c2=O)CC[C@H]1C(=O)c1ccc(OCc2ccc(Cl)cc2)cc1 (single isomer, unassigned) [Example 26, (−)-(1RS,2RS,5SR)-2-{4-[(4-Chlorobenzyl)oxy]benzoyl}-5-{[4-oxo-6-(trifluoromethyl)-1,2,3-benzotriazin-3(4H)-yl]methyl}cyclopentanecarboxylic acid]",1
12,"O=C(O)[C@@H]1[C@@H](Cn2nnc3ccc(C(F)(F)F)cc3c2=O)CC[C@H]1C(=O)c1ccc(OCc2cccc(N3CCOC3=O)c2)cc1 (single isomer, unassigned) [Example 34, (−)-(1RS,2RS,5SR)-2-(4-{[3-(2-Oxo-1,3-oxazolidin-3-yl)benzyl]oxy}benzoyl)-5-{[4-oxo-6-(trifluoromethyl)-1,2,3-benzotriazin-3(4H)-yl]methyl}cyclopentanecarboxylic acid]",160
13,"O=C(O)[C@@H]1[C@@H](Cn2nnc3ccc(C(F)(F)F)cc3c2=O)CC[C@H]1C(=O)c1ccc(OCCc2ccccc2)cc1 (single isomer, unassigned) [Example 37, (+)-(1RS,2SR,5RS)-2-{[4-Oxo-6-(trifluoromethyl)-1,2,3-benzotriazin-3(4H)-yl]methyl}-5-[4-(2-phenylethoxy)benzoyl]cyclopentanecarboxylic acid]",0.08
14,"O=C(O)[C@@H]1[C@@H](Cn2nnc3ccc(C(F)(F)F)cc3c2=O)CC[C@H]1C(=O)c1ccc(OCCc2ccccc2)cc1 (single isomer, unassigned) [Example 38, (−)-(1RS,2SR,5RS)-2-{[4-Oxo-6-(trifluoromethyl)-1,2,3-benzotriazin-3(4H)-yl]methyl}-5-[4-(2-phenylethoxy)benzoyl]cyclopentanecarboxylic acid]",350
15,"O=C(O)[C@@H]1[C@@H](Cn2nnc3ccc(C(F)(F)F)cc3c2=O)CC[C@H]1C(=O)c1ccc(OCC2CCCCC2)cc1 (single isomer, unassigned) [Example 42, (−)-(1RS,2RS,5SR)-2-[4-(Cyclohexylmethoxy)benzoyl]-5-{[4-oxo-6-(trifluoromethyl)-1,2,3-benzotriazin-3(4H)-yl]methyl}cyclopentanecarboxylic acid]",39
16,"O=C(O)[C@@H]1[C@@H](Cn2nnc3ccc(C(F)(F)F)cc3c2=O)CC[C@H]1C(=O)c1ccc(OCC2CCCC2)cc1 (single isomer, unassigned) [Example 45, (−)-(1RS,2RS,5SR)-2-[4-(Cyclopentylmethoxy)benzoyl]-5-{[4-oxo-6-(trifluoromethyl)-1,2,3-benzotriazin-3(4H)-yl]methyl}cyclopentanecarboxylic acid]",4.1
17,"O=C(O)[C@@H]1[C@@H](Cn2nnc3ccc(C(F)(F)F)cc3c2=O)CC[C@H]1C(=O)c1ccc(OCC2CCC2)cc1 (single isomer, unassigned) [Example 47, (+)-(1RS,2RS,5SR)-2-[4-(Cyclobutylmethoxy)benzoyl]-5-{[4-oxo-6-(trifluoromethyl)-1,2,3-benzotriazin-3(4H)-yl]methyl}cyclopentanecarboxylic acid]",0.025
18,"O=C(O)[C@@H]1[C@@H](Cn2nnc3ccc(C(F)(F)F)cc3c2=O)CC[C@H]1C(=O)c1ccc(OCC2CCC2)cc1 (single isomer, unassigned) [Example 48, (−)-(1RS,2RS,5SR)-2-[4-(Cyclobutylmethoxy)benzoyl]-5-{[4-oxo-6-(trifluoromethyl)-1,2,3-benzotriazin-3(4H)-yl]methyl}cyclopentanecarboxylic acid]",290
19,"O=C(O)[C@@H]1[C@@H](Cn2nnc3ccc(C(F)(F)F)cc3c2=O)CC[C@H]1C(=O)c1ccc(OCCC2CCCCC2)cc1 (single isomer, unassigned) [Example 51, (−)-(1RS,2RS,5SR)-2-[4-(2-Cyclohexylethoxy)benzoyl]-5-{[4-oxo-6-(trifluoromethyl)-1,2,3-benzotriazin-3(4H)-yl]methyl}cyclopentanecarboxylic acid]",30
20,"O=C(O)[C@@H]1[C@@H](Cn2nnc3ccc(C(F)(F)F)cc3c2=O)CC[C@H]1C(=O)c1ccc(OCCC2CCCC2)cc1 (single isomer, unassigned) [Example 54, (−)-(1RS,2RS,5SR)-2-[4-(2-Cyclopentylethoxy)benzoyl]-5-{[4-oxo-6-(trifluoromethyl)-1,2,3-benzotriazin-3(4H)-yl]methyl}cyclopentanecarboxylic acid]",22
21,"CCCCCCOc1ccc(C(=O)[C@@H]2CC[C@H](Cn3nnc4ccc(C(F)(F)F)cc4c3=O)[C@H]2C(=O)O)cc1 (single isomer, unassigned) [Example 59, (−)-(1RS,2RS,5SR)-2-[4-(Hexyloxy)benzoyl]-5-{[4-oxo-6-(trifluoromethyl)-1,2,3-benzotriazin-3(4H)-yl]methyl}cyclopentanecarboxylic acid]",4.2
22,"CC(C)CCOc1ccc(C(=O)[C@@H]2CC[C@H](Cn3nnc4ccc(C(F)(F)F)cc4c3=O)[C@H]2C(=O)O)cc1 (single isomer, unassigned) [Example 61, (+)-(1RS,2RS,5SR)-2-[4-(3-Methylbutoxy)benzoyl]-5-{[4-oxo-6-(trifluoromethyl)-1,2,3-benzotriazin-3(4H)-yl]methyl}cyclopentanecarboxylic acid]",0.032
